Read-outs that look alike come from different tables or passages of the source.
Assays:
rats [1] = experiment: In vivo LAD coronary artery ligation (35 min) and reperfusion, infarct size, pretreatment 15 min prior; design: species or system rat; conditions: 1 mg/kg i.v.
rats [2] = experiment: In vivo coronary artery occlusion and reperfusion, administration immediately prior to reperfusion; design: species or system rat; conditions: 0.3 mg/kg, administered at time of reperfusion
rats [3] = experiment: Tail pinch test for analgesia; assay type: in vivo, rat; conditions: intravenous
Description: (§1) Analgesia was assayed in rats using the tail pinch test. Compound 1 was administered intravenously. Nociceptive response values were obtained for a 1-2 hour period. An artery clamp was placed on the tail (one inch from the tip of the tail) for a short duration until an escape response occurred (i.e. tail-flick or vocalization). The escape response latency was recorded by means of a stopwatch. A cutoff time of 20 sec. was used to prevent unnecessary tissue damage. […] The elapsed time to elicit a pain response was recorded as the tail pinch latency in seconds.
(§2) Further, the compound acts predominately at peripheral delta opioid receptors.

[4] = tested on: hearts isolated from Sprague-Dawley rats; experiment: tissue or blood; design: species or system rat; conditions: for % IS/AAR: about 15 min prior to occlusion; for inhibition at 0.0001 µM / inhibition at 0.001 µM / inhibition at 0.01 µM: Rattus norvegicus, after 35 min regional ischemia and 120 min reperfusion; for inhibition at 0.0001 µM: 0.1 nM; for inhibition at 0.001 µM: 1.0 nM
rats [5] = experiment: Observation of seizures in tail pinch test animals; assay type: in vivo, rat; conditions: intravenous, up to 50 mg/kg
Description: as §1, §2

μ opioid receptor = molecular target: T1, μ opioid receptor (Rattus norvegicus, UniProt P33535); experiment: Radioligand binding ([3H]DAMGO), rat brain membranes
T1 construct: tissue Pel-Freeze Biological Inc. (Rogers, Ark.); host or cells: rat whole brain membranes

rats [6] = experiment: In vivo coronary artery occlusion (30 min) and reperfusion, pre-ischemic administration; design: species or system rat
δ opioid receptor = molecular target: T2, δ opioid receptor (Rattus norvegicus, UniProt P33533); experiment: Radioligand binding ([3H]Deltorphin II), rat brain membranes
T2 construct: tissue Pel-Freeze Biological Inc. (Rogers, Ark.); host or cells: rat whole brain membranes

κ opioid receptor = molecular target: T3, κ opioid receptor (Cavia porcellus, UniProt P41144); experiment: Radioligand binding ([3H]U69593), guinea pig cerebellum membranes
T3 construct: tissue Pel-Freeze Biological Inc. (Rogers, Ark.); host or cells: guinea pig cerebellum membranes

[7] = 0.03 mg/kg i.v. 5 min prior to occlusion
[8] = 0.3 mg/kg i.v. 5 min prior to occlusion

T1 sequence (P33535 whole entry): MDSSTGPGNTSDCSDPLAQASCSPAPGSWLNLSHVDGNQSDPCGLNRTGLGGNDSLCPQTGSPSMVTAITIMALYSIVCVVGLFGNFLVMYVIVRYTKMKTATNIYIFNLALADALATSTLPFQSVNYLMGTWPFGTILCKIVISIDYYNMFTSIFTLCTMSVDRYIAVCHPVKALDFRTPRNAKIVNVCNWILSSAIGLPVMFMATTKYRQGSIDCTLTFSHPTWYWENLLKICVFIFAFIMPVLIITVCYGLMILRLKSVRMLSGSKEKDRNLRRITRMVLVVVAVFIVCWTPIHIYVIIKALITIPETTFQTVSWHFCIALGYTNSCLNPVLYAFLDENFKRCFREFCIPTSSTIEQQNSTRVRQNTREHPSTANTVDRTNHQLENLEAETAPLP
T2 sequence (P33533 whole entry): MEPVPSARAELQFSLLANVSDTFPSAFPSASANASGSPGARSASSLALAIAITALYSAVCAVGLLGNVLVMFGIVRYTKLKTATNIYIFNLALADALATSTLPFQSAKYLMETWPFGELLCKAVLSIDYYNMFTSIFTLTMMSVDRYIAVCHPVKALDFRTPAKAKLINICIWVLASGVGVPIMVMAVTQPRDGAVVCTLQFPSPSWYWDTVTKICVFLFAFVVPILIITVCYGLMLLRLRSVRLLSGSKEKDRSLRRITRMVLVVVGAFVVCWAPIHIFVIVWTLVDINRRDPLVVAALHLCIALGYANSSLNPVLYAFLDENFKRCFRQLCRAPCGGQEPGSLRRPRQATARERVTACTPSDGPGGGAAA
T3 sequence (P41144 whole entry): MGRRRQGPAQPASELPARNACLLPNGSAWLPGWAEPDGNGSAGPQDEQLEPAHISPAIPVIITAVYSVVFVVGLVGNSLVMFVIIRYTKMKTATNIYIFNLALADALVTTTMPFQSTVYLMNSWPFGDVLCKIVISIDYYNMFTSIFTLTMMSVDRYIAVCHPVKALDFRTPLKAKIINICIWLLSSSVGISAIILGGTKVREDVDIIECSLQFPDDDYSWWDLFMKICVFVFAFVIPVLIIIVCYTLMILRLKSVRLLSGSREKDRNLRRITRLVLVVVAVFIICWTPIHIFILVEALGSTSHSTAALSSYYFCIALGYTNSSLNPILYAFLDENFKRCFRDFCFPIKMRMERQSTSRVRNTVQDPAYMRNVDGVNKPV

`CCN(CC)C(=O)c1ccc([C@H](c2cccc(O)c2)N2C[C@@H](C)N(Cc3ccc(C(=O)O)cc3)C[C@@H]2C)cc1` [Compound 1] was tested, and the “Reduction of Infarct Size Relative to Non treated Control” value (rats [1]; measurement 156 hours after administration (approximately 7 days)) was 43%, the “Reduction of Infarct Size Relative to Non treated Control” value (rats [1]; measurement after acute administration) was 48% and the “protection against control ischemic damage” value (rats [2]) was 30-40%. The ED50 (rats [3]; Rattus norvegicus, 20 sec cutoff) was greater than 50 mg/kg, the analgesic activity (rats [3]) was “no analgesic activity” and the “reduction of infarct size relative to control group” value ([4]; 1 nM acute pretreatment, one group, FIG. 1) was 71%. The “% IS/AAR” value ([4]; 1 nM, isolated rat heart) was 18 ± 5%, the “% IS/AAR” value ([4]; 2 nM, isolated rat heart) was 9 ± 2% and the “protection against damage present in control group (maximal protection)” value ([4]; 2 nM, isolated rat heart) was roughly 90%. For the same molecule, the “% IS/AAR” value ([4]; 10 nM, isolated rat heart) was 20 ± 6%, the inhibition at 0.0001 µM ([4]; read-out: +dP/dt % inhibition) was 26% and the inhibition at 0.0001 µM ([4]; read-out: CF % inhibition) was 43%. The inhibition at 0.0001 µM ([4]; read-out: HRXDP % inhibition) was 32%, the inhibition at 0.0001 µM ([4]; read-out: −dP/dt % inhibition) was 19% and the inhibition at 0.001 µM ([4]; read-out: +dP/dt % inhibition) was 7%. The inhibition at 0.001 µM ([4]; read-out: CF % inhibition) was 13%, the inhibition at 0.001 µM ([4]; read-out: HRXDP % inhibition) was 17% and the inhibition at 0.001 µM ([4]; read-out: −dP/dt % inhibition) was 10%. For the same molecule, the inhibition at 0.01 µM ([4]; 10 nM, read-out: +dP/dt % inhibition) was 21%, the inhibition at 0.01 µM ([4]; 10 nM, read-out: CF % inhibition) was 38% and the inhibition at 0.01 µM ([4]; 10 nM, read-out: HRXDP % inhibition) was 32%. The inhibition at 0.01 µM ([4]; 10 nM, read-out: −dP/dt % inhibition) was 18%, the “heart tissue functioning, % of normal (on the average)” value ([4]; pretreated hearts, some parameters up to 90%) was “at least 75%” and the Seizures (rats [5]) was “NONE”. The Seizures (rats [5]; listed as compound (1)) was “no seizures were observed”, the Ki (μ opioid receptor) was 1520 nM and the “Study 1 (% IS/AAR)” value (rats [6]; 0.01 mg/kg i.v. 5 min prior to occlusion) was 56 ± 5%. For the same molecule, the “Study 1 (% IS/AAR)” value (rats [6]; [7]) was 44 ± 10%, the “Study 2 (% IS/AAR)” value (rats [6]; [7]) was 40 ± 3% and the “Study 2 (% IS/AAR)” value (rats [6]; 0.1 mg/kg i.v. 5 min prior to occlusion) was 39 ± 3%. The “Study 1 (% IS/AAR)” value (rats [6]; [8]) was 35 ± 11%, the “Study 2 (% IS/AAR)” value (rats [6]; [8]) was 38 ± 3% and the “Study 1 (% IS/AAR)” value (rats [6]; 1.0 mg/kg i.v. 5 min prior to occlusion) was 40 ± 8%. The Ki (δ opioid receptor) was 1.89 nM and the Ki (κ opioid receptor) was 17400 nM.
